Series [1] has as its system isolated liver cells (1000×g cell fraction). Briefly: Iron-dependent liver cell lipid peroxidation (LCLP). It counts as cell-based. The note with it: SEM.
In series [2] the test system is Liver cells. Description: Incorporation of labeled choline into phosphatidylcholine (PC biosynthesis) by liver cells with iron. It counts as cell-based. The settings on record: SEM. The text has this: The study of effects oil liver cells was also considered based on evaluation of effect on increase in the incorporation of labeled choline into phosphatidylcholine (phosphatidylcholine biosynthesis) by liver cells. Vitamin E phosphate/phosphatidylcholine produced greater beneficial effects than either vitamin E phosphate or phosphatidylcholine.

In series [3] the test system is Liver cells. Description: Phosphatidylcholine formation in liver cells dysfunctional due to ethanol exposure. It counts as cell-based. Here is the method: Liver cells which had become dysfunctional due to exposure to ethanol were incubated 24 hours with vitamin E phosphate/phosphatidylcholine liposomes. The pmoles of phosphatidylcholine formed per minute/mg protein was then measured with the following results: […]

In series [4] the test system is cultured liver cells. Briefly: Reversal of ethanol damage in cultured liver cells (phosphatidylcholine biosynthesis). It counts as cell-based. The note with it: 96 h, ± SEM. Here is the method:
The use of vitamin E phosphate/phosphatidylcholine to effect reversal of damage from ethanol on liver cells was then studied. The cultured liver cells were incubated with 25 mM or 50 mM ethanol for 96 hours, at which time there is significant reduction in liver cell function (phosphatidylcholine biosynthesis). The effect of adding vitamin E phosphate/phosphatidylcholine after 72 hours was studied, and 24 hours later (96 hours after initial exposure to ethanol) values were obtained.

Series [5] has as its system male albino mice. Description: Allyl alcohol-induced liver injury in male albino mice (SGPT). It counts as in vivo. The settings on record: allyl alcohol alone, single intraperitoneal dose 50 mg/kg, 4 hours; ± SEM. As for the experimental part: Influence of vitamin E phosphate/phosphatidylcholine liposomes (see example 1) on Allyl alcohol-induced liver injury was evaluated in male albino mice.

Setting [6] is: 1 mM iron plus addition: PC 100 μM, VEP 50 μm, or combination VEP/PC.

As to `Cc1c(C)c2c(c(C)c1OP(=O)(O)O)CCC(C)(CCCC(C)CCCC(C)CCCC(C)C)O2` (centres unmarked) [VEP, vitamin E phosphate], in series [1] (setting [6]), the “LCLP (liver cell lipid peroxidation)” value is on record as 167 ± 3 % control. The PC biosynthesis in series [2] (setting [6]) is 145 ± 4 % control.
For phosphatidylcholine [PC], in series [1] (setting [6]), the “LCLP (liver cell lipid peroxidation)” value was determined as 281 ± 4 % control. In addition, in series [2] (setting [6]), the PC biosynthesis amounted to 167 ± 4 % control.
In the case of `CCO` [ethanol], the phosphatidylcholine formed in series [3] (cells exposed to ethanol (control 75)) is 25 pmoles per minute/mg protein; in series [3] (cells exposed to ethanol, then incubated 24 hours in water), 27 pmoles per minute/mg protein. The “liver cell function (phosphatidylcholine biosynthesis)” value amounted to 38 ± 2 % control in series [4] (25 mM ethanol alone) and 22 ± 1 % control in series [4] (50 mM ethanol alone).
As to `[Fe]` [iron], the “LCLP (liver cell lipid peroxidation)” value in series [1] (1 mM iron alone) turned out to be 357 ± 12 % control. Further, the PC biosynthesis in series [2] (1 mM iron alone) amounted to 254 ± 9 % control.
As to `C=CCO` [Allyl alcohol], the SGPT in series [5] is reported as 330 ± 15 % of control.

The values above are taken from patent US20060228395A1, “Vitamin E phosphate/phosphatidylcholine liposomes to protect from or ameliorate cell damage” (priority 2005, published 2006).
